From US10941174B2, “Non-caloric sweetener” (Conagen Inc., priority 2014, dated 2021)

Assays:
[1] = background statement; cited from earlier work
[2] = Solubility in water of Reb D3 compared to Reb D; format: physicochemical
Description: In this Example, the solubility of Reb D3 was compared to Reb D.

[3] = Sensory evaluation (taste test) of Reb D3 against sucrose controls by a panel of nine volunteers; format: in vivo, human; settings: for overall % sweetness equivalence (SE) average: room temperature, vs 1.0%, 3.0%, 6.0% sucrose (w/v), nine volunteers
Method: In this Example, a taste test was conducted on Reb D3.
Sensory evaluation of Reb D3 was performed using sucrose as a control. The sucrose sample purchased from Sigma-Aldrich and prepared control samples at three different concentrations of 1.0%, 3.0%, and 6.0% sucrose in bottled water (w/v) at room temperature. The steviol glycoside Reb D3 at 300, and 600 ppm for sensory evaluation was prepared by adding corresponding mass into a 1000 mL of bottled water. The mixture was stirred at room temperature and the steviol glycoside sample was then evaluated against several control sucrose samples at 1.0%, 3.0%, and 6.0% by a panel of nine volunteers.

In the case of `C=C1C[C@@]23CC[C@H]4[C@@](C)(CCC[C@@]4(C)C(=O)O[C@@H]4O[C@H](CO)[C@@H](O)[C@H](O)[C@H]4O)[C@@H]2CC[C@]1(O[C@@H]1O[C@H](CO)[C@@H](O)[C@H](O)[C@H]1O[C@@H]1O[C@@H](C)[C@H](O)[C@@H](O)[C@H]1O)C3` [Dulcoside A], the “times sweeter than sucrose” value [1] is listed as “about 30 times”.

For `C=C1C[C@@]23CCC4[C@](C)(C(=O)OC5OC(CO)C(O)C(O)C5OC5OC(CO)C(O)C(O)C5O)CCC[C@@]4(C)[C@@H]2CCC1(OC1OC(COC2OC(CO)C(O)C(O)C2O)C(O)C(O)C1OC1OC(CO)C(O)C(O)C1O)C3` (stereo partly drawn) [Reb D3, 13-[(2-O-β-D-glucopyranosyl-6-O-β-D-glucopyranosyl-β-D-glucopyranosyl)oxy] ent-kaur-16-en-19-oic acid-(2-O-β-D-glucopyranosyl-β-D-glucopyranosyl) ester], the “solubility in water compared with Reb D” value [2] was “higher solubility in water than does Reb D”, the dissolution in water ([2]; solutions of 0.25 mM, 0.5 mM, 1 mM, 1.5 mM, 2 mM, 5 mM and 10 mM in water) was “completely dissolved in water immediately” and the “overall % sweetness equivalence (SE) average” value ([3]; 300 ppm in bottled water) was “about 2.4%”. For the same compound, the “overall % sweetness equivalence (SE) average” value ([3]; 600 ppm in bottled water) was roughly 5.4% and the “times sweeter to sucrose” value ([3]; from SE at 300 and 600 ppm) was 80-90 times.

With `C=C1C[C@@]23CC[C@H]4[C@@](C)(CCC[C@@]4(C)C(=O)O[C@@H]4O[C@H](CO)[C@@H](O)[C@H](O)[C@H]4O[C@@H]4O[C@H](CO)[C@@H](O)[C@H](O)[C@H]4O)[C@@H]2CC[C@]1(O[C@@H]1O[C@H](CO)[C@@H](O)[C@H](O[C@@H]2O[C@H](CO)[C@@H](O)[C@H](O)[C@H]2O)[C@H]1O[C@@H]1O[C@H](CO)[C@@H](O)[C@H](O)[C@H]1O)C3` [Reb D, Rebaudioside D] the “dissolution in water when heated” value ([2]; 0.5 mM, 1 mM, 1.5 mM, 2 mM, 5 mM and 10 mM, heated at 30° C. for 72 hours) was “did not dissolve” and the “concentration that totally dissolved in water” value ([2]; tested 0.25-10 mM in water) was 250 µM.

For `C=C1C[C@@]23CC[C@H]4[C@@](C)(CCC[C@@]4(C)C(=O)O[C@@H]4O[C@H](CO)[C@@H](O)[C@H](O)[C@H]4O)[C@@H]2CC[C@]1(O[C@@H]1O[C@H](CO)[C@@H](O)[C@H](O[C@@H]2O[C@H](CO)[C@@H](O)[C@H](O)[C@H]2O)[C@H]1O[C@@H]1O[C@H](CO)[C@@H](O)[C@H](O)[C@H]1O)C3` [Rebaudioside A], the after-taste [1] is listed as “less of an after-taste than stevioside”.

In the case of `C=C1C[C@@]23CC[C@H]4[C@@](C)(CCC[C@@]4(C)C(=O)O[C@@H]4O[C@H](CO)[C@@H](O)[C@H](O)[C@H]4O)[C@@H]2CC[C@]1(O[C@@H]1O[C@H](CO)[C@@H](O)[C@H](O[C@@H]2O[C@H](CO)[C@@H](O)[C@H](O)[C@H]2O)[C@H]1O[C@@H]1O[C@@H](C)[C@H](O)[C@@H](O)[C@H]1O)C3` [Rebaudioside C], the “times sweeter than sucrose” value [1] is given as 40-60 times.

For `C=C1C[C@@]23CC[C@H]4[C@@](C)(CCC[C@@]4(C)C(=O)O[C@@H]4O[C@H](CO)[C@@H](O)[C@H](O)[C@H]4O)[C@@H]2CC[C@]1(O[C@@H]1O[C@H](CO)[C@@H](O)[C@H](O)[C@H]1O[C@@H]1O[C@H](CO)[C@@H](O)[C@H](O)[C@H]1O)C3` [Stevioside], the after-taste [1] is listed as “bitter after-taste” and the “times sweeter than sucrose” value [1] is listed as 100-150 times.

In the case of `C=C1C[C@@]23CCC4[C@](C)(C(=O)OC5OC(CO)C(O)C(O)C5OC5OC(CO)C(O)C(O)C5O)CCC[C@@]4(C)[C@@H]2CCC1(OC1OC(CO)C(O)C(O)C1OC1OC(CO)C(O)C(O)C1O)C3` (stereo partly shown) [rebaudioside E, Rebaudioside E], the after-taste [1] is given as “less of an after-taste than stevioside”.
